Source: patent US20220289708A1, “SUBSTITUTED N-PHENYL URACILS, SALTS THEREOF AND THEIR USE AS HERBICIDAL AGENTS” (Bayer Aktiengesellschaft, priority 2019, published 2022)

Tests used:
Type in all cases: in vivo
Abutilon theophrasti = experiment: Post-emergence herbicidal action; settings: application rate 20 g/ha, rated visually after about 3 weeks vs untreated controls
Experimental: (§1) a. Post-Emergence Herbicidal Action and Crop Plant Compatibility Seeds of monocotyledonous and dicotyledonous weeds and crop plants were placed in sandy loam in plastic or wood-fiber pots, covered with soil and cultivated in a greenhouse under controlled growth conditions. 2 to 3 weeks after sowing, the test plants were treated at the one-leaf stage. The compounds of the invention, formulated in the form of wettable powders (WP) or as emulsion concentrates (EC), were then sprayed onto the green parts of the plants as aqueous suspension or emulsion with addition of 0.5% additive at a water application rate of 600 l/ha (converted). After the test plants had been kept in the greenhouse under optimum growth conditions for about 3 weeks, the activity of the preparations was rated visually in comparison to untreated controls. For example, 100% activity=the plants have died, 0% activity=like control plants. Tables A1 to A15 below show the effects of selected compounds of the general formula (I) according to Tables I.1 to I.36 on various harmful plants and at an application rate corresponding to 20 g/ha and less, which were obtained by the experimental procedure mentioned above.

Alopecurus myosuroides = experiment: Post-emergence herbicidal action; settings: application rate 20 g/ha, rated visually after about 3 weeks vs untreated controls
Experimental: as §1

Amaranthus retroflexus = experiment: Post-emergence herbicidal action; settings: application rate 20 g/ha, rated visually after about 3 weeks vs untreated controls
Experimental: as §1

Avena fatua = experiment: Post-emergence herbicidal action; settings: application rate 20 g/ha, rated visually after about 3 weeks vs untreated controls
Experimental: as §1

Digitaria sanguinalis = experiment: Post-emergence herbicidal action; settings: application rate 20 g/ha, rated visually after about 3 weeks vs untreated controls
Experimental: as §1

Echinochloa crus-galli = experiment: Post-emergence herbicidal action; settings: application rate 20 g/ha, rated visually after about 3 weeks vs untreated controls
Experimental: as §1

Lolium rigidum = experiment: Post-emergence herbicidal action; settings: application rate 20 g/ha, rated visually after about 3 weeks vs untreated controls
Experimental: as §1

Matricaria inodora = experiment: Post-emergence herbicidal action; settings: application rate 20 g/ha, rated visually after about 3 weeks vs untreated controls
Experimental: as §1

Pharbitis purpurea = experiment: Post-emergence herbicidal action; settings: application rate 20 g/ha, rated visually after about 3 weeks vs untreated controls
Experimental: as §1

Polygonum convolvulus = experiment: Post-emergence herbicidal action; settings: application rate 20 g/ha
Experimental: as §1

Setaria viridis = experiment: Post-emergence herbicidal action; settings: application rate 20 g/ha, rated visually after about 3 weeks vs untreated controls
Experimental: as §1

Veronica persica = experiment: Post-emergence herbicidal action; settings: application rate 20 g/ha
Experimental: as §1

Viola tricolor = experiment: Post-emergence herbicidal action; settings: application rate 20 g/ha
Experimental: as §1

Oryza sativa = experiment: Post-emergence crop plant compatibility; settings: application rate 20 g/ha
Experimental: a. Post-Emergence Herbicidal Action and Crop Plant Compatibility
as §1, with “Seeds” for “a. Post-Emergence Herbicidal Action and Crop Plant Compatibility Seeds”, “plants.” for “plants. Tables A1 to A15 below show the effects of selected compounds of the general formula (I) according to Tables I.1 to I.36 on various harmful plants and at an application rate corresponding to 20 g/ha and less, which were obtained by the experimental procedure mentioned above.”
Tables A16 to A19 below show the crop plant compatibilities of selected compounds of the general formula (I) according to Tables I.1 to I.36 at an application rate corresponding to 5 g/ha or 20 g/ha, which were obtained in experiments according to the experimental procedure mentioned above. Here, the observed effects on selected crop plants are stated in comparison to the untreated controls (values in %).

CCOCCOC(=O)COc1ncccc1Oc1cc(-n2c(=O)cc(C(F)(F)F)n(C)c2=O)c(F)cc1Br [I.16-2]
Abutilon theophrasti (efficacy in %) (Abutilon theophrasti): 100%
Alopecurus myosuroides (efficacy in %) (Alopecurus myosuroides): 100%
Amaranthus retroflexus (efficacy in %) (Amaranthus retroflexus): 100%
Avena fatua (efficacy in %) (Avena fatua): 100%
Digitaria sanguinalis (efficacy in %) (Digitaria sanguinalis): 100%
Echinochloa crus-galli (efficacy in %) (Echinochloa crus-galli): 100%
Lolium rigidum (efficacy in %) (Lolium rigidum): 100%
Matricaria inodora (efficacy in %) (Matricaria inodora): 100%
Pharbitis purpurea (efficacy in %) (Pharbitis purpurea): 100%
Polygonum convolvulus (efficacy in %) (Polygonum convolvulus): 100%
Setaria viridis (efficacy in %) (Setaria viridis): 100%
Veronica persica (efficacy in %) (Veronica persica): 100%
Viola tricolor (efficacy in %) (Viola tricolor): 100%

COCCOCCOC(=O)COc1ncccc1Oc1cc(-n2c(=O)cc(C(F)(F)F)n(C)c2=O)c(F)cc1Br [I.16-23]
Abutilon theophrasti (efficacy in %) (Abutilon theophrasti): 100%
Alopecurus myosuroides (efficacy in %) (Alopecurus myosuroides): 100%
Amaranthus retroflexus (efficacy in %) (Amaranthus retroflexus): 100%
Avena fatua (efficacy in %) (Avena fatua): 100%
Digitaria sanguinalis (efficacy in %) (Digitaria sanguinalis): 100%
Echinochloa crus-galli (efficacy in %) (Echinochloa crus-galli): 100%
Lolium rigidum (efficacy in %) (Lolium rigidum): 100%
Matricaria inodora (efficacy in %) (Matricaria inodora): 100%
Pharbitis purpurea (efficacy in %) (Pharbitis purpurea): 100%
Polygonum convolvulus (efficacy in %) (Polygonum convolvulus): 100%
Setaria viridis (efficacy in %) (Setaria viridis): 100%
Veronica persica (efficacy in %) (Veronica persica): 100%
Viola tricolor (efficacy in %) (Viola tricolor): 100%

Cn1c(C(F)(F)F)cc(=O)n(-c2cc(Oc3cccnc3OCC(=O)OCC3CCCO3)c(Br)cc2F)c1=O (stereo not shown) [I.16-71]
Abutilon theophrasti (efficacy in %) (Abutilon theophrasti): 100%
Alopecurus myosuroides (efficacy in %) (Alopecurus myosuroides): 100%
Amaranthus retroflexus (efficacy in %) (Amaranthus retroflexus): 100%
Avena fatua (efficacy in %) (Avena fatua): 90%
Digitaria sanguinalis (efficacy in %) (Digitaria sanguinalis): 100%
Echinochloa crus-galli (efficacy in %) (Echinochloa crus-galli): 100%
Lolium rigidum (efficacy in %) (Lolium rigidum): 90%
Matricaria inodora (efficacy in %) (Matricaria inodora): 100%
Pharbitis purpurea (efficacy in %) (Pharbitis purpurea): 100%
Polygonum convolvulus (efficacy in %) (Polygonum convolvulus): 100%
Setaria viridis (efficacy in %) (Setaria viridis): 100%
Veronica persica (efficacy in %) (Veronica persica): 100%
Viola tricolor (efficacy in %) (Viola tricolor): 100%

Cn1c(C(F)(F)F)cc(=O)n(-c2cc(Oc3cccnc3OCC(=O)OCC#N)c(Br)cc2F)c1=O [I.16-176]
Abutilon theophrasti (efficacy in %) (Abutilon theophrasti): 100%
Alopecurus myosuroides (efficacy in %) (Alopecurus myosuroides): 100%
Amaranthus retroflexus (efficacy in %) (Amaranthus retroflexus): 100%
Avena fatua (efficacy in %) (Avena fatua): 90%
Digitaria sanguinalis (efficacy in %) (Digitaria sanguinalis): 100%
Echinochloa crus-galli (efficacy in %) (Echinochloa crus-galli): 100%
Lolium rigidum (efficacy in %) (Lolium rigidum): 80%
Matricaria inodora (efficacy in %) (Matricaria inodora): 100%
Pharbitis purpurea (efficacy in %) (Pharbitis purpurea): 100%
Polygonum convolvulus (efficacy in %) (Polygonum convolvulus): 90%
Setaria viridis (efficacy in %) (Setaria viridis): 100%
Veronica persica (efficacy in %) (Veronica persica): 100%
Viola tricolor (efficacy in %) (Viola tricolor): 100%

Cn1c(C(F)(F)F)cc(=O)n(-c2cc(Oc3cccnc3OCC(=O)OCC3OCCO3)c(Br)cc2F)c1=O [I.16-424]
Abutilon theophrasti (efficacy in %) (Abutilon theophrasti): 100%
Alopecurus myosuroides (efficacy in %) (Alopecurus myosuroides): 100%
Amaranthus retroflexus (efficacy in %) (Amaranthus retroflexus): 100%
Avena fatua (efficacy in %) (Avena fatua): 90%
Digitaria sanguinalis (efficacy in %) (Digitaria sanguinalis): 100%
Echinochloa crus-galli (efficacy in %) (Echinochloa crus-galli): 100%
Lolium rigidum (efficacy in %) (Lolium rigidum): 80%
Matricaria inodora (efficacy in %) (Matricaria inodora): 100%
Pharbitis purpurea (efficacy in %) (Pharbitis purpurea): 100%
Polygonum convolvulus (efficacy in %) (Polygonum convolvulus): 100%
Setaria viridis (efficacy in %) (Setaria viridis): 100%
Veronica persica (efficacy in %) (Veronica persica): 100%
Viola tricolor (efficacy in %) (Viola tricolor): 100%

COCCOCCOC(=O)COc1ncc(F)cc1Sc1cc(-n2c(=O)cc(C(F)(F)F)n(C)c2=O)c(F)cc1Cl [I.31-23, 2-(2-Methoxyethoxy)ethyl {[3-({5-[3-methyl-2,6-dioxo-4-(trifluoromethyl)-3,6-dihydropyrimidin-1(2H)-yl]-2-chloro-4-fluorophenyl}sulfanyl)-5-fluoropyridin-2-yl]oxy}acetate]
Abutilon theophrasti (efficacy in %) (Abutilon theophrasti): 100%
Alopecurus myosuroides (efficacy in %) (Alopecurus myosuroides): 90%
Amaranthus retroflexus (efficacy in %) (Amaranthus retroflexus): 100%
Digitaria sanguinalis (efficacy in %) (Digitaria sanguinalis): 100%
Echinochloa crus-galli (efficacy in %) (Echinochloa crus-galli): 100%
Matricaria inodora (efficacy in %) (Matricaria inodora): 100%
Pharbitis purpurea (efficacy in %) (Pharbitis purpurea): 100%
Setaria viridis (efficacy in %) (Setaria viridis): 100%
Veronica persica (efficacy in %) (Veronica persica): 100%
Viola tricolor (efficacy in %) (Viola tricolor): 100%
Oryza sativa (efficacy in %) (Oryza sativa): 20%

COCCOC(=O)COc1ncccc1Oc1cc(-n2c(=O)cc(C(F)(F)F)n(C)c2=O)c(F)cc1C#N [I.35-1]
Abutilon theophrasti (efficacy in %) (Abutilon theophrasti): 100%
Alopecurus myosuroides (efficacy in %) (Alopecurus myosuroides): 100%
Amaranthus retroflexus (efficacy in %) (Amaranthus retroflexus): 100%
Avena fatua (efficacy in %) (Avena fatua): 100%
Digitaria sanguinalis (efficacy in %) (Digitaria sanguinalis): 100%
Echinochloa crus-galli (efficacy in %) (Echinochloa crus-galli): 100%
Lolium rigidum (efficacy in %) (Lolium rigidum): 80%
Matricaria inodora (efficacy in %) (Matricaria inodora): 100%
Pharbitis purpurea (efficacy in %) (Pharbitis purpurea): 100%
Polygonum convolvulus (efficacy in %) (Polygonum convolvulus): 100%
Setaria viridis (efficacy in %) (Setaria viridis): 100%
Veronica persica (efficacy in %) (Veronica persica): 100%
Viola tricolor (efficacy in %) (Viola tricolor): 100%

COCCOC(=O)COc1ncc(F)cc1Oc1cc(-n2c(=O)cc(C(F)(F)F)n(C)c2=O)c(F)cc1Cl [I.36-1]
Abutilon theophrasti (efficacy in %) (Abutilon theophrasti): 100%
Alopecurus myosuroides (efficacy in %) (Alopecurus myosuroides): 100%
Amaranthus retroflexus (efficacy in %) (Amaranthus retroflexus): 100%
Avena fatua (efficacy in %) (Avena fatua): 100%
Digitaria sanguinalis (efficacy in %) (Digitaria sanguinalis): 100%
Echinochloa crus-galli (efficacy in %) (Echinochloa crus-galli): 100%
Lolium rigidum (efficacy in %) (Lolium rigidum): 90%
Matricaria inodora (efficacy in %) (Matricaria inodora): 100%
Pharbitis purpurea (efficacy in %) (Pharbitis purpurea): 100%
Polygonum convolvulus (efficacy in %) (Polygonum convolvulus): 100%
Setaria viridis (efficacy in %) (Setaria viridis): 100%
Veronica persica (efficacy in %) (Veronica persica): 100%
Viola tricolor (efficacy in %) (Viola tricolor): 100%

Cn1c(C(F)(F)F)cc(=O)n(-c2cc(Oc3cc(F)cnc3OCC(=O)OCc3ccccn3)c(Cl)cc2F)c1=O [I.36-286]
Abutilon theophrasti (efficacy in %) (Abutilon theophrasti): 100%
Alopecurus myosuroides (efficacy in %) (Alopecurus myosuroides): 100%
Amaranthus retroflexus (efficacy in %) (Amaranthus retroflexus): 100%
Avena fatua (efficacy in %) (Avena fatua): 80%
Digitaria sanguinalis (efficacy in %) (Digitaria sanguinalis): 100%
Echinochloa crus-galli (efficacy in %) (Echinochloa crus-galli): 100%
Lolium rigidum (efficacy in %) (Lolium rigidum): 80%
Matricaria inodora (efficacy in %) (Matricaria inodora): 90%
Pharbitis purpurea (efficacy in %) (Pharbitis purpurea): 100%
Polygonum convolvulus (efficacy in %) (Polygonum convolvulus): 100%
Setaria viridis (efficacy in %) (Setaria viridis): 100%
Veronica persica (efficacy in %) (Veronica persica): 100%
Viola tricolor (efficacy in %) (Viola tricolor): 100%
